Consider 22 compounds from ChEMBL document CHEMBL2057194, “Structure-activity relationships, ligand efficiency, and lipophilic efficiency profiles of benzophenone-type inhibitors of the multidrug transporter P-glycoprotein” (J Med Chem, 2012).

The structures appear in SMILES notation.

For the first test, the target named is ATP-dependent translocase ABCB1 (Homo sapiens, UniProt P08183). Kind of test: Inhibition of P-glycoprotein-mediated daunorubicin efflux from human CCRF-CEM/VCR1000 cells after 240 secs by FACS flow cytometric analysis. Particulars: read-out: IC50. For orientation: In flow cytometry, cells or beads pass a laser one at a time.
Sequence of ATP-dependent translocase ABCB1 (P08183 whole entry): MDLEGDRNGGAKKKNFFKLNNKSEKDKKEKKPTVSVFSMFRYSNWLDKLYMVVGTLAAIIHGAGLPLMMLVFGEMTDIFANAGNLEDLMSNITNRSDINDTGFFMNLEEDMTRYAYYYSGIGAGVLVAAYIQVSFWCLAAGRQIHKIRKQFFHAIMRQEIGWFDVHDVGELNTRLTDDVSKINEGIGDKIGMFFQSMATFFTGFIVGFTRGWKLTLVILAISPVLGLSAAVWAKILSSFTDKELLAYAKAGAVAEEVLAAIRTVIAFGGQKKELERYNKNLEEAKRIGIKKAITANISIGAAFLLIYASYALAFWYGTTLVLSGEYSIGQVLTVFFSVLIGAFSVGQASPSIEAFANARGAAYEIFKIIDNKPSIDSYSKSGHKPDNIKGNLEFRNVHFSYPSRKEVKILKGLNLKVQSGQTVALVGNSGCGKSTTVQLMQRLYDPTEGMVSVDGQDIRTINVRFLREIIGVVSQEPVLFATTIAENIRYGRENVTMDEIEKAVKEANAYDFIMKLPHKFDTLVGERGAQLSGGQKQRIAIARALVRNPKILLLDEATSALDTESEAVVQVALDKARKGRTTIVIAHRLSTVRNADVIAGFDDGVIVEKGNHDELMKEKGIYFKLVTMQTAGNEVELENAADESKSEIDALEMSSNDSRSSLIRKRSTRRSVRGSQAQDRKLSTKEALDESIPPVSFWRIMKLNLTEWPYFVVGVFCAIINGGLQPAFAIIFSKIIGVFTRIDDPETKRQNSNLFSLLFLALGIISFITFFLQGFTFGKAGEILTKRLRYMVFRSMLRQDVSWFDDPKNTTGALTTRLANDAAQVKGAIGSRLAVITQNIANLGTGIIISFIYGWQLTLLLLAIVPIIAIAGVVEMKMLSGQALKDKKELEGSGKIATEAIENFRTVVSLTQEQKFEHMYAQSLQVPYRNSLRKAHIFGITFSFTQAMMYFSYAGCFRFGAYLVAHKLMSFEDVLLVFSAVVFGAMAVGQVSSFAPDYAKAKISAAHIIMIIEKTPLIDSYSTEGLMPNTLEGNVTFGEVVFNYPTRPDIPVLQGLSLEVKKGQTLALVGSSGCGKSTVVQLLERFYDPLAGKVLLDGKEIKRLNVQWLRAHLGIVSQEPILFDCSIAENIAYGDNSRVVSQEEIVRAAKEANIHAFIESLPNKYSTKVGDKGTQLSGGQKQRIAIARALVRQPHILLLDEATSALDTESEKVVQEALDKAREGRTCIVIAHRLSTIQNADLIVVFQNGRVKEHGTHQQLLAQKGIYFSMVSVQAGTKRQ
In the case of `O=C(c1ccccc1)c1ccccc1OCC(O)CN1CCC(O)(c2ccccc2)CC1` (configuration not stated), the IC50 turned out to be 310 nM.

As for `O=C(c1ccccc1)c1ccccc1OCC(O)CN1CCN(c2ccc(F)cc2)CC1` (configuration not stated), the IC50 was determined as 150 nM.

As to `O=C(c1ccccc1)c1ccc(OCC(O)CN2CCOCC2)cc1` (configuration not stated), the IC50 stood at 5320 nM.

Take `O=C(c1ccccc1)c1ccc(OCC(O)CN2CCCCC2)cc1` (configuration not stated): the IC50 turned out to be 2180 nM.

For `O=C(c1ccccc1)c1ccccc1OCC(O)CN1CCOCC1` (configuration not stated), the IC50 came out at 13400 nM.

As to `Cc1cccc(N2CCN(CC(O)COc3cccc(C(=O)c4ccccc4)c3)CC2)c1C` (configuration not stated), the IC50 is 170 nM.

As for `Cc1cccc(N2CCN(CC(O)COc3ccc(C(=O)c4ccccc4)cc3)CC2)c1C` (configuration not stated), the IC50 is 650 nM.

For `O=C(c1ccccc1)c1cccc(OCC(O)CN2CCN(c3ccc(F)cc3)CC2)c1` (configuration not stated), the IC50 stood at 580 nM.

For the compound `O=C(c1ccccc1)c1ccc(OCC(O)CN2CCN(c3ccc(F)cc3)CC2)cc1` (configuration not stated), the IC50 stood at 970 nM.

Consider `O=C(c1ccccc1)c1ccccc1OCC(O)CN1CCCCC1` (configuration not stated), for which the IC50 turned out to be 1200 nM.

For the compound `O=C(c1ccccc1)c1cccc(OCC(O)CN2CCCCC2)c1` (configuration not stated), the IC50 amounted to 3550 nM.

Turning to `Cc1ccccc1N1CCN(CC(O)COc2cccc(C(=O)c3ccccc3)c2)CC1` (configuration not stated), the IC50 amounted to 200 nM.

On to `Cc1ccccc1N1CCN(CC(O)COc2ccc(C(=O)c3ccccc3)cc2)CC1` (configuration not stated), for which the IC50 amounted to 500 nM.

In the case of `CCCNCC(O)COc1ccccc1C(=O)c1ccc(C)cc1` (configuration not stated), the IC50 came to 1210 nM.

Turning to `Cc1ccc(NC(=O)N2CCN(CC(O)COc3ccccc3C(=O)c3ccccc3)CC2)cc1` (configuration not stated), the IC50 is 480 nM.

For `Cc1ccc(NC(=S)N2CCN(CC(O)COc3ccccc3C(=O)c3ccccc3)CC2)cc1` (configuration not stated), the IC50 was 380 nM.

`O=C(c1ccccc1)c1ccccc1OCC(O)CN1CCN(CC(O)COc2ccccc2C(=O)c2ccccc2)CC1` (configuration not stated): the IC50 amounted to 50 nM.

As to `CC(=O)c1cc(C)ccc1OCC(O)CN1CCN(CC(O)COc2ccccc2C(=O)c2ccccc2)CC1` (configuration not stated), the IC50 stood at 9480 nM.

Staying with this test, now noted: read-out: pIC50 (converted).
Regarding `CCOC/C=C/c1ccc(-c2nc(-c3ccc(NC(C)C)cc3)c(-c3ccc(NC(C)C)cc3)[nH]2)cc1`, the IC50 was 31.6 nM.

Regarding `O=C(CCc1ccccc1)c1ccccc1OCC(O)CN1CCCCC1` (configuration not stated), the IC50 was 603 nM.

`O=C(CCc1ccccc1)c1ccccc1OCC(O)CN1CCC(O)(c2ccccc2)CC1` (configuration not stated): the IC50 was 57.5 nM.

For `COc1cc2c(cc1OC)CN(CCc1ccc(NC(=O)c3cc(OC)c(OC)cc3NC(=O)c3cnc4ccccc4c3)cc1)CC2`, the IC50 was 33.1 nM.
